Measurements: patent US20260306640A1, “TECHNOLOGIES TARGETING CELL STATES” (Auron Therapeutics, Inc., priority 2023, published 2026)
Like-named read-outs stand apart in the source and are kept apart here.

What was measured:
histone acetylation [1] = experiment: Western blot of histone acetylation in acute myeloid leukemia MOLM-13 cells, 48 h; assay type: cell-based; settings: FIG. 2 (A)
Procedure: FIG. 2. Provided compounds can provide various activities. (A): Provided technologies can reduce KAT2A and KAT2B levels and histone acetylation levels. […] Cell count data after 8 days of treatment with compound 22 relative to DMSO control are presented as examples to confirm inhibition. […] (C): Provided technologies can modulate cell states and induce differentiation. […] EC50=0.3 nM.

histone acetylation [2] = experiment: Western blot of histone acetylation in NEPC primary patient organoid, 72 hours; assay type: cell-based; settings: FIG. 3 (D)
Procedure: FIG. 3. Provided compounds can provide various activities. (A): Provided technologies can reduce KAT2A and KAT2B levels and histone acetylation levels. […] Cell viability (Cell Titer Glo) data relative to DMSO control after 7 days of treatment with compound 22 are presented as examples to confirm inhibition. GI50=5 nM. (C): Provided technologies can modulate cell states and induce differentiation. […] (D): Provided technologies can reduce KAT2A and KAT2B levels and histone acetylation levels including in neuroendocrine prostate cancer primary patient organoid. […] Concentrations are nM. […] Cell viability data relative to DMSO control after 21 days of treatment with compound 22 are presented as examples to confirm inhibition. GI50=3 nM. (F): Provided technologies can modulate cell states and induce differentiation.

[3] = tested on: histone acetylation (e.g., AcH3K9); experiment: Histone H3K9 acetylation (AcH3K9), Western Blot, NCI-H1048 cells; assay type: cell-based, human; settings: FIG. 1
Procedure: In some embodiments, an assessment is performed using cells. In some embodiments, cells were treated with various compounds before assessing KAT2A and/or KAT2B levels, histone (e.g., H3K9) acetylation levels, cell states, growth, etc.
Western Blot: In some assessments, MOLM13, NCI-H1048, LASCPC-01 and NEPC organoid cells were treated with compounds at certain concentrations for certain periods of time, and cell pellets were lysed by adding 1-part 4×laemmli Sample buffer (e.g., Bio-Rad Catalog #1610747) along with Mercaptoethanol (e.g., Bio-Rad Catalog #1610710) according to manufacturer's instructions, and 1-part RIPA buffer with 2×protease and phosphatase inhibitor. The samples were sonicated 30% amplitude, 35 seconds on and 35 seconds off for 1 cycle and boiled at 95° C. for 5 minutes. 30-35 μL of samples were loaded on a 4-15% Criterion™ TGX Stain-Free™ Protein Gel (Bio-rad, 5678084). In some assessments, NCI-H1048 flash frozen tumor pieces were resuspended in RIPA buffer and homogenized on TissueLyser II with steel beads at 30 Hz for 3 minutes. Samples were then centrifuged at […] at 4° C. for 15 minutes. BCA protein determination was performed and samples normalized for 1.95 ug/uL. 19.5 uL were loaded and run on similar gels as cell pellets. […]

CD86 in MOLM-13 cells = experiment: Flow cytometry for CD86 (monocytic differentiation) in MOLM-13; assay type: cell-based; settings: FIG. 2
Procedure: In some assessments, flow cytometry was utilized to assess levels of cells expressing certain polypeptides. For example, for flow cytometry for CD86 in MOLM-13, MOLM13 cells were stained with Live/Dead solution (Fixable Live/Dead NIR 1:100 in PBS) at RT, in the dark, for 20 min and then washed once with cell staining solution. The cells were then blocked with Human Fc Blocker solution at RT for 8 mins. Then they were labeled with CD86-APC R700 (565149, BD) (2.5 uL/test) on ice for 30 min in the dark. Following incubation, cells were washed once with cell staining solution. Flow cytometric acquisition was done on BD Celesta flow cytometer (BD Biosciences) and analyses were performed using Flow-Jo software.

KAT2B = KAT2B (Homo sapiens, UniProt Q92831); experiment: KAT2B degradation, Western Blot (Jess), NCI-H1048 cells; assay type: cell-based; parameters: degrader, Western blot (Jess)
Sequence of KAT2B (Q92831 whole entry): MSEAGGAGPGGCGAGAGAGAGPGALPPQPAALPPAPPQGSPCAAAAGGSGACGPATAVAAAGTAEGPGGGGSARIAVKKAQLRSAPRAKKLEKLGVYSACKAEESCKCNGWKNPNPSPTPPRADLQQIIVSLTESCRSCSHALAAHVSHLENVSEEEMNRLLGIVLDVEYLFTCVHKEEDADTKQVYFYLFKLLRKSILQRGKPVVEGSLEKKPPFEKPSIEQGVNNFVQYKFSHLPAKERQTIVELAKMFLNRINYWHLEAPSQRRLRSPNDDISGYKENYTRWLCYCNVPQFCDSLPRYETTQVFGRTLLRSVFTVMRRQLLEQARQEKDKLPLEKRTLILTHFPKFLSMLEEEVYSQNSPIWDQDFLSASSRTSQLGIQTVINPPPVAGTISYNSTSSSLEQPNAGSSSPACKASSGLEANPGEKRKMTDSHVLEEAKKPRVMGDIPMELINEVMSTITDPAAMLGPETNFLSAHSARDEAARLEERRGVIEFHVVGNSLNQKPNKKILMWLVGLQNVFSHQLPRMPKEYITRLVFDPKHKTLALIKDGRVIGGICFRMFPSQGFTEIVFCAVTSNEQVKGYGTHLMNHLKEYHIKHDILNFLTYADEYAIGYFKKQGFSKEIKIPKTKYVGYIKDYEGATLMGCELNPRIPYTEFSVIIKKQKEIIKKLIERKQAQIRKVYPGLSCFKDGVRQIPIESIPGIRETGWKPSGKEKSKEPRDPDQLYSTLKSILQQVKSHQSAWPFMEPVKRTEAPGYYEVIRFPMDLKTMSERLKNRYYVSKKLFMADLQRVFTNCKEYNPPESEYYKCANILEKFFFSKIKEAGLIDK
Method in brief: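 DC50 came from protein loss relative to DMSO, measured by Jess capillary immunoblot of RIPA lysates with chemiluminescence read-out. Before lysis, NCI-H1048 cells in 5% FBS HITES medium were exposed to compound for 24 h at 37° C.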

Which results are given for CN1C[C@H](Nc2cnn(C)c(=O)c2Br)C[C@H](c2ccc(C(=O)N3CCC(CN4CCN(c5ccc6c(c5)CN(C5CCC(=O)NC5=O)C6=O)CC4)CC3)cc2)C1 (stereo partly drawn) [Compound 22, 3-(5-(4-((1-(4-((3R,5R)-5-((5-bromo-1-methyl-6-oxo-1,6-dihydropyridazin-4-yl)amino)-1-methylpiperidin-3-yl)benzoyl)piperidin-4-yl)methyl)piperazin-1-yl)-1-oxoisoindolin-2-yl)piperidine-2,6-dione]?
reduction of histone acetylation level (histone acetylation [1]): confirm such reduction; reduction of histone acetylation level (histone acetylation [2]): confirmed such reductions; histone acetylation (e.g., AcH3K9) levels [3]: reduce histone acetylation (e.g., AcH3K9) levels; induction of differentiation (CD86) (CD86 in MOLM-13 cells): induce differentiation (e.g., monocytic differentiation as assessed using CD86); EC90 (KAT2B; 24 h, NCI-H1048, KAT2B, read-out: DC90 (the source's name)): 1.44 nM; DC50 (KAT2B; NCI-H1048, KAT2B, read-out: DC50): 0.04 nM; KAT2B levels (KAT2B; NCI-H1048 cells, FIG. 1): potently reduce KAT2A and KAT2B levels; DC50 (KAT2B; NCI-H1048 cells, KAT2B, 24 h, Western Blot, vs DMSO, read-out: KAT2B NCI-H1048 DC50): < 1 nM
